Assays:
MRC5 = test: MTS proliferation assay, MRC5; type: cell-based; details: MRC5, 72 h incubation; read-out: MTS proliferation assay IC 50 MRC5
In short: (§1)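 Cells seeded 24 h before treatment in RPMI-1640 with 5% or 10% FCS, then exposed 72 h at 37 °C, 7.5% CO2, to compound at final 10, 3, 1 and 0.3 μM. Viability by MTS, 3 h further incubation, absorbance 492 nm.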

Jurkat [1] = test: PI staining for cell cycle distribution, Jurkat; type: cell-based, human; set-up: key: 0: no effect; 1: weak effect; 2: strong effect; details: Jurkat 3 μM, 24 h
Procedure: (§2) Cell lines are cultured in RPMI-1640 tissue culture medium containing either 5% or 10% fetal calf serum, 0.05 mM 2-mercaptoethanol, 2 mM glutamine and penicillin/streptomycin 50 μg/ml (complete medium) (Sigma, Buchs, Switzerland). General growth conditions are 37° C. and 7.5% CO2.
(§3) The following human cell lines (either EGFP transfected or not) are being used: HeLa (ATCC: CCL-2), KB (ATCC: CCL-17), MCF7 (ATCC: HTB-22), SK-BR-3 (ATCC: HTB-30), SK-Mel 1 (ATCC: HTB-67), SK-Mel 28 (ATCC: HTB-72), PC-3 (ATCC: CRL-1435), SW 480 (ATCC: CCL-228), NCl-H460 (ATCC: HTB-177), NCl-H1792 (ATCC: CRL-5895), HT1080 (ATCC: CCL-21), Jurkat (ATCC: TIB-152), Ramos (ATCC: CRL-1596), Raji (ATCC: CCL-86), H9 (ATCC: HTB-176), Hut78 (ATCC: TIB-161), K562 (ATCC: CCL 243), HL-60 (ATCC: CCL 240), U-87MG (ATCC: HTB-14), HepG2 (ATCC: HB-8065), U-2 OS (ATCC: HTB-96), Saos-2 (ATCC: HTB-85), U937 (ATCC: CRL 1593), Hs 578T (ATCC: HTB 126), HBL-100 (ATCC: HTB 124), Molt-4 (ATCC: CRL 1582).
(§4) 1-2*10^5 cells are seeded into 24 well tissue culture plates and incubated for 24 h prior to compound addition. Compounds are added for 24 h in a final concentration of 3 μM or 10 μM. Adherent cells are harvested by trypsinization. The cell suspensions are fixed by adding 2 parts ice cold ethanol 100% while vortexing. Then the samples are stored for >2 h at −20° C. Subsequently the cells are washed with PBS once and resuspended in 250 μl PBS containing 50 μg/ml PI (Calbiochem # 537059), then the samples are incubated at 37° C. for 30 minutes and subsequently analyzed on a FACSCalibur™ monitoring linear PI fluorescence activity on FL2. The readout allows the detection of a possible direct or indirect influence of the tested compounds on the cell cycle. The following events can occur: a) Generation of a subG1 peak indicative for DNA fragmentation, b) increase of the cell population arrested in G2M phase. Both events are scored by 1 for weak and 2 for strong occurrence. 0 indicates no occurrence at all.

HeLa [2] = test: PI staining for cell cycle distribution, HeLa; type: cell-based, human; set-up: key: 0: no effect; 1: weak effect; 2: strong effect; details: HeLa 10 μM, 24 h
Procedure: as §2, §3, §4

Jurkat [3] = test: MTS proliferation assay, Jurkat; type: cell-based, human; details: 72 h incubation, read-out: MTS proliferation assay IC 50 Jurkat
In short: (§5)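 Cells seeded 24 h before treatment in RPMI-1640 with 5% or 10% FCS. Compounds added at 10, 3, 1 and 0.3 μM final and incubated 72 h at 37 °C, 7.5% CO2. MTS reagent then added for 3 h, absorbance read at 492 nm.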

HeLa [4] = test: MTS proliferation assay, HeLa; type: cell-based, human; details: 72 h incubation, read-out: MTS proliferation assay IC 50 HeLa
In short: as §5

[5] = test system: adherent cells or suspension cells; test: Hoechst 33342 nuclear staining (fraction of apoptotic nuclei); type: cell-based; set-up: key: 0 relating to no activity; 1 relating to weak activity comprising less than 70% of the cells; score 2 relating to strong activity comprising more than 70% of the cells
Jily = test: MTS proliferation assay, Jily; type: cell-based; details: 72 h incubation, read-out: MTS proliferation assay IC 50 Jily
In short: as §1

HT1080 = test: MTS proliferation assay, HT1080; type: cell-based, human; details: HT1080, 72 h incubation; read-out: MTS proliferation assay IC 50 HT1080
In short: as §5

[6] = cell population arrested in G2M phase
[7] = subG1 peak indicative for DNA fragmentation

Row | IC50 (Jurkat [3]) [nM] | IC50 (HeLa [4]) [nM] | SMILES | IC50 (MRC5) [nM] | Hoechst 33342 nuclear staining score ([5]; H460, conc 0.01 μm) | Hoechst 33342 nuclear staining score ([5]; H460, conc 0.1 μm) | Hoechst 33342 nuclear staining score ([5]; H460, conc 1 μm) | Hoechst 33342 nuclear staining score ([5]; HeLa, conc 0.01 μm) | Hoechst 33342 nuclear staining score ([5]; HeLa, conc 0.1 μm) | Hoechst 33342 nuclear staining score ([5]; HeLa, conc 1 μm) | Hoechst 33342 nuclear staining score ([5]; Jily, conc 0.01 μm) | Hoechst 33342 nuclear staining score ([5]; Jily, conc 0.1 μm) | Hoechst 33342 nuclear staining score ([5]; Jily, conc 1 μm) | Hoechst 33342 nuclear staining score ([5]; Jurkat, conc 0.01 μm) | Hoechst 33342 nuclear staining score ([5]; Jurkat, conc 0.1 μm) | Hoechst 33342 nuclear staining score ([5]; Jurkat, conc 1 μm) | Hoechst 33342 nuclear staining score ([5]; MRC5, conc 0.01 μm) | Hoechst 33342 nuclear staining score ([5]; MRC5, conc 0.1 μm) | Hoechst 33342 nuclear staining score ([5]; MRC5, conc 1 μm) | Hoechst 33342 nuclear staining score ([5]; PBLs, conc 0.01 μm) | Hoechst 33342 nuclear staining score ([5]; PBLs, conc 0.1 μm) | further results
1 | 100 to 1000 | 100 to 1000 | CON=C(Cn1c(-c2nonc2N)nc2ccccc21)c1ccc(Br)cc1 (mixture of isomers) [Example 30] | 100 to 1000 | 0 | 0 | 0 | 0 | 0 | 1 (1 relating to weak activity comprising less than 70% of the cells) | 0 | 0 | 1 (1 relating to weak activity comprising less than 70% of the cells) | 0 | 0 | 2 (score 2 relating to strong activity comprising more than 70% of the cells) | 0 | 0 | 2 (score 2 relating to strong activity comprising more than 70% of the cells) | 0 | 0 | PI staining for cell cycle distribution, G2M (Jurkat [1]; [6]): 0; PI staining for cell cycle distribution, subG1 (Jurkat [1]; [7]): 0; PI staining for cell cycle distribution, G2M (HeLa [2]; [6]): 2; PI staining for cell cycle distribution, subG1 (HeLa [2]; [7]): 0; Hoechst 33342 nuclear staining score ([5]; PBLs, conc 1 μm): 0
2 | 100 to 1000 | > 1000 | Cl.Nc1ccc(OCn2c(-c3nonc3N)nc3ccccc32)cc1 [Example 100] | > 1000 | 0 | 0 | 0 | 0 | 0 | 0 | 0 | 0 | 1 (1 relating to weak activity comprising less than 70% of the cells) | 0 | 0 | 1 (1 relating to weak activity comprising less than 70% of the cells) | 0 | 0 | 0 | 0 | 0 | IC50 (Jily): > 1000 nM; IC50 (HT1080): > 1000 nM; Hoechst 33342 nuclear staining score ([5]; PBLs, conc 1 μm): 0
3 | 100 to 1000 | 100 to 1000 | Cc1cc2nc(-c3nonc3N)n(CC(=O)c3ccccc3)c2cc1C [Example 108] | 100 to 1000 | 0 | 0 | 1 (1 relating to weak activity comprising less than 70% of the cells) | 0 | 0 | 0 | 0 | 0 | 2 (score 2 relating to strong activity comprising more than 70% of the cells) | 0 | 0 | 2 (score 2 relating to strong activity comprising more than 70% of the cells) | 0 | 0 | 0 | 0 | 0 | IC50 (Jily): 100 to 1000 nM; IC50 (HT1080): 100 to 1000 nM; Hoechst 33342 nuclear staining score ([5]; PBLs, conc 1 μm): 0
